Patent publication US6153589A, “2,3-epoxy alcohols, acids and derivatives as anti retroviral chemotherapeutic agents” (The United States of America as represented by the …, priority 1992, dated 2000)
Like-named read-outs stand apart in the source and are kept apart here. Where a SMILES comes first, the peptide text is derived from it. [ ]: non-standard residue; d: D form. The star is where a group is joined. Sta = CC(C)C[C@H](N)[C@@H](O)CC(=O)O; Isovaleryl = CC(C)CC(=O)*

Key:
HIV-2 protease = test: HIV protease cleavage of nonapeptide (HPLC); format: biochemical; conditions: 0.5 μl of 10 μg/μl inhibitor in DMSO per 10 μl reaction; pH 6.5, room temperature; pentapeptide product relative to DMSO control; sampled at ca. 16 and 40 hr (time not given)
Method: Activity Against HIV Protease
The assay for proteolyic activity is a modified version of that previously described by Copeland et al., Gene Anal. Tech., 5:109-115 (1988). For each assay to be performed 2 microliters of protease solution (ca. 100 ng) is added to 3 μg of nonapeptide (Val-Ser-Gln-Asn-Tyr-Pro-Ile-Val-Gln-NH2) in 8 μl of 200 mM sodium phosphate, 1 M NaCl, 5% glycerol, 0.25% Nonidet-40, at pH 6.5. This affords a stock solution containing 10 μl per number of reactions. This stock is aliquoted out in 10 μl portions to which 0.5 μl of DMSO (a control is run with each set of assays to compensate for minor experimental variations) or a DMSO solution containing 10 μg/μl of an inhibitor, i.e., any one of the compounds of the present invention, is added. The reactions were incubated at room temperature and 4 μl portions were removed at ca. 16 and 40 hr. intervals. HPLC analysis was performed on a 4.6×250 mm Lichrosorb RP-18 column eluted with a gradient of 0-40% acetonitrile in water (containing 0.05% TFA) over 30 min monitoring absorbance at 206 nm. Progress of the enzymatic cleavage was followed by monitoring the appearance of the pentapeptide (Val-Ser-Gln-Asn-Tyr-OH) cleavage product. The activity is expressed as the amount of the pentapeptide (Val-Ser-Gln-Asn-Tyr-OH) observed relative to the control reaction for that set of assays.
Inhibition of HIV-2 protease

HIV1 IIIb = test: microbe, parasite or virus in culture; format: cell-based; conditions: Human immunodeficiency virus 1, IIIB; for viability at 50 µg/mL: 50 ug/ml; for viability at 4.9 µg/mL: 4.9 ug/ml; for viability at 2.9 µg/mL: 2.9 ug/ml; for viability at 21 µg/mL: 21 ug/ml; for viability at 10 µg/mL: 10 ug/ml; for viability at 0.1 µg/mL: 0.1 ug/ml; for viability at 1 µg/mL: 1 ug/ml
Source text: In-vitro Screening Anti--HIV XTT Assay
This assay, which is available to the public by the National Cancer Institute, utilizes colorimetry based on the production of a colored formazin from a tetrazolium salt by viable cells, to develop a safe, rapid and quantitative measure of HIV cytopathology. The assay is a modification of the previously described screening method for the detection of anti-tumor drug cytotoxicity (D. A. Scudiero, et al, Cancer Res, 48, 4827-4833 (1988)). It involves the plating of susceptible human "host" cells with and without virus in microculture plates, adding various concentrations of the respective test compounds, incubating the plates for seven days, during which time infected, non-drug treated control cells are largely or totally destroyed by the virus. The number of remaining viable cells are determined utilizing a calorimetric endpoint. A beneficial antiviral effect is indicated by a response % grater than the virus kill %, with 100% being optimal.
Anti-viral effect: Response (Viable Cells, determined by colorometric
absorbance of formazan dye produced) as % of uninfected controls
Virus Source: HIV1 IIIb; C, Virus producing H9 cells; V, cell free virus
Virus Kill: Infected untreated cells as % of uninfected cell controls
*: Culture redosed with compound after 3 days

Compound: CCCCCCCCCCC[C@@H]1O[C@@H]1CO (relative stereo) [2-cis-Undecyloxirane methanol]
- Percent Control Cleavage of Nonapeptide HIV-1 Cleavage Site Fragment (HIV-2 protease): 104%

Compound: CCCCCCCCCCC[C@H]1O[C@@H]1CO (relative stereo) [2-trans-Undecyloxirane methanol]
- Percent Control Cleavage of Nonapeptide HIV-1 Cleavage Site Fragment (HIV-2 protease): 88%

Compound: CCCCCCC[C@H]1O[C@H]1C (relative stereo) [Example 43, cis-2-Epoxydecene]
- Percent Control Cleavage of Nonapeptide HIV-1 Cleavage Site Fragment (HIV-2 protease): 102%

Compound: CCCCCCC/C=C\CO [Example 3, cis-2-Decen-1-ol]
- Percent Control Cleavage of Nonapeptide HIV-1 Cleavage Site Fragment (HIV-2 protease): 105%

Compound: CCCCCCCCC[C@@H]1O[C@@H]1CO [Example 12, (2R-cis)-3-Nonyloxirane Methanol]
- viability at 50 µg/mL (HIV1 IIIb; 168 h, read-out: Antiviral Effect (viable cells as % of uninfected controls), run 8, source V (cell free virus), virus kill 27.0%): 56.9%
- viability at 4.9 µg/mL (HIV1 IIIb; 168 h, read-out: Antiviral Effect (viable cells as % of uninfected controls), run 9, source V (cell free virus), virus kill 53.0%): 82.4%
- viability at 2.9 µg/mL (HIV1 IIIb; 168 h, read-out: Antiviral Effect (viable cells as % of uninfected controls), run 10, source V (cell free virus), virus kill 55.0%): 82.9%
- viability at 49 µg/mL (HIV1 IIIb; 168 h, read-out: Antiviral Effect (viable cells as % of uninfected controls), run 11, 49 ug/ml, source V (cell free virus), virus kill 30.0%): 54.9%
- viability at 2.9 µg/mL (HIV1 IIIb; 168 h, read-out: Antiviral Effect (viable cells as % of uninfected controls), run 12, source V (cell free virus), virus kill 36.0%): 62.2%
- viability at 21 µg/mL (HIV1 IIIb; 168 h, read-out: Antiviral Effect (viable cells as % of uninfected controls), run 13, source V (cell free virus), virus kill 19.5%): 53.4%
- viability at 21 µg/mL (HIV1 IIIb; 168 h, read-out: Antiviral Effect (viable cells as % of uninfected controls), run 14, source V (cell free virus), virus kill 24.0%): 98.7%
- viability at 10 µg/mL (HIV1 IIIb; H9, 168 h, read-out: Antiviral Effect (viable cells as % of uninfected controls), run 1, source C (virus producing H9 cells), virus kill 6.0%): 75.1%
- viability at 10 µg/mL (HIV1 IIIb; H9, 168 h, read-out: Antiviral Effect (viable cells as % of uninfected controls), run 2, source C (virus producing H9 cells), virus kill 27.0%): 71.3%
- viability at 50 µg/mL (HIV1 IIIb; H9, 168 h, read-out: Antiviral Effect (viable cells as % of uninfected controls), run 3, source C (virus producing H9 cells), virus kill 16.0%): 32.1%
- viability at 4.9 µg/mL (HIV1 IIIb; H9, 168 h, read-out: Antiviral Effect (viable cells as % of uninfected controls), run 4, source C (virus producing H9 cells), virus kill 16.0%): 31.6%
- viability at 2.9 µg/mL (HIV1 IIIb; H9, 168 h, read-out: Antiviral Effect (viable cells as % of uninfected controls), run 5, source C (virus producing H9 cells), virus kill 15.0%): 23.1%
- viability at 4.9 µg/mL (HIV1 IIIb; H9, 168 h, read-out: Antiviral Effect (viable cells as % of uninfected controls), run 6, source C (virus producing H9 cells), virus kill 11.0%): 16.7%
- viability at 29 µg/mL (HIV1 IIIb; H9, 168 h, read-out: Antiviral Effect (viable cells as % of uninfected controls), run 7, 29 ug/ml, source C (virus producing H9 cells), virus kill 11.0%): 15.7%
- Percent Control Cleavage of Nonapeptide HIV-1 Cleavage Site Fragment (HIV-2 protease): 96%

Compound: OC[C@@H]1O[C@@H]1COCc1ccccc1 [Example 13, (2S-cis)-3-(Benzyloxymethyl)oxirane Methanol]
- viability at 0.1 µg/mL (HIV1 IIIb; 168 h, read-out: Antiviral Effect (viable cells as % of uninfected controls), run 4, source V (cell free virus), virus kill 55.0%): 50%
- viability at 0.1 µg/mL (HIV1 IIIb; 168 h, read-out: Antiviral Effect (viable cells as % of uninfected controls), run 5, source V (cell free virus), virus kill 27.0%): 52.5%
- viability at 4.4 µg/mL (HIV1 IIIb; 168 h, read-out: Antiviral Effect (viable cells as % of uninfected controls), run 6, 4.4 ug/ml, source V (cell free virus), virus kill 24.0%): 28.4%
- viability at 0.44 µg/mL (HIV1 IIIb; 168 h, read-out: Antiviral Effect (viable cells as % of uninfected controls), run 7*, 0.44 ug/ml, source V (cell free virus), virus kill 27.0%, culture redosed with compound after 3 days): 30.1%
- viability at 0.1 µg/mL (HIV1 IIIb; H9, 168 h, read-out: Antiviral Effect (viable cells as % of uninfected controls), run 1, source C (virus producing H9 cells), virus kill 21.0%): 22.1%
- viability at 1 µg/mL (HIV1 IIIb; H9, 168 h, read-out: Antiviral Effect (viable cells as % of uninfected controls), run 2, source C (virus producing H9 cells), virus kill 13.0%): 15.7%
- viability at 1 µg/mL (HIV1 IIIb; H9, 168 h, read-out: Antiviral Effect (viable cells as % of uninfected controls), run 3, source C (virus producing H9 cells), virus kill 11.0%): 10.2%
- Percent Control Cleavage of Nonapeptide HIV-1 Cleavage Site Fragment (HIV-2 protease): 81%

Compound: CCCCCCCCC[C@@H]1O[C@H]1CO [Example 29, (2S-trans)-3-Nonyloxirane Methanol]
- Percent Control Cleavage of Nonapeptide HIV-1 Cleavage Site Fragment (HIV-2 protease): 106%

Compound: CCCCCCCCC[C@H]1O[C@@H]1CO [Example 30, (2R-trans)-3-Nonyloxirane Methanol]
- Percent Control Cleavage of Nonapeptide HIV-1 Cleavage Site Fragment (HIV-2 protease): 105%

Compound: CCCCCCCCCCC[C@@H]1O[C@H]1CO [Example 31, (2S-trans)-3-Undecyloxirane Methanol]
- Percent Control Cleavage of Nonapeptide HIV-1 Cleavage Site Fragment (HIV-2 protease): 95%

Compound: CCCCCCCCCCC[C@H]1O[C@@H]1CO [Example 32, (2R-trans)-3-Undecyloxirane Methanol]
- Percent Control Cleavage of Nonapeptide HIV-1 Cleavage Site Fragment (HIV-2 protease): 98%

Compound: CCCCCCC[C@@H]1O[C@H]1CO [Example 33, (2S-trans)-3-heptyloxirane Methanol]
- Percent Control Cleavage of Nonapeptide HIV-1 Cleavage Site Fragment (HIV-2 protease): 105%

Compound: CCCCCCC[C@H]1O[C@@H]1CO [Example 34, (2R-trans)-3-Heptyloxirane Methanol]
- Percent Control Cleavage of Nonapeptide HIV-1 Cleavage Site Fragment (HIV-2 protease): 104%

Compound: CCCCCCC[C@H]1O[C@H]1C(=O)O [Example 37, (2R-cis)-3-Heptyloxirane Carboxylic Acid]
- Percent Control Cleavage of Nonapeptide HIV-1 Cleavage Site Fragment (HIV-2 protease): 104%

Compound: CCCCCCC[C@@H]1O[C@@H]1C(=O)O [Example 38, (2S-cis)-3-Heptyloxiranecarboxylic Acid]
- Percent Control Cleavage of Nonapeptide HIV-1 Cleavage Site Fragment (HIV-2 protease): 105%

Compound: CCCCCCCCC[C@H]1O[C@H]1C(=O)N1CCC[C@H]1C(=O)OC [Example 41, N-(2R-cis)-3-Nonyloxiraneacyl L-proline Methyl Ester]
- Percent Control Cleavage of Nonapeptide HIV-1 Cleavage Site Fragment (HIV-2 protease): 24%

Compound: CCCCCCCCC[C@H]1O[C@H]1C(=O)N(CC)CC [Example 42, N,N-Diethyl-(2R-cis)-3-nonyloxiranecarboxy Amide]
- Percent Control Cleavage of Nonapeptide HIV-1 Cleavage Site Fragment (HIV-2 protease): 77%

Compound: CCCCCCCCCCCCCC(=O)O [Myristic Acid, reference compound]
- Percent Control Cleavage of Nonapeptide HIV-1 Cleavage Site Fragment (HIV-2 protease): 111%

Compound: CC(C)CC(=O)N[C@H](C(=O)N[C@H](C(=O)N[C@@H](CC(C)C)[C@@H](O)CC(=O)N[C@@H](C)C(=O)N[C@@H](CC(C)C)[C@@H](O)CC(=O)O)C(C)C)C(C)C [Pepstatin A, reference compound] (Isovaleryl-VV[Sta]A[Sta]-OH)
- Percent Control Cleavage of Nonapeptide HIV-1 Cleavage Site Fragment (HIV-2 protease): 1%
